Experimental data from patent US20100104580A1, “Altered Immunogenic Landscape in HIV-1 Envelope Proteins” (priority 2008, published 2010).

How the values were obtained:
[1] = system: interaction between gp120 and four-domain soluble CD4 (4dCD4); conditions: cited from earlier work
[2] = system: interaction between gp120 and 17b; conditions: cited from earlier work
[3] = molecular target: gp120 binding to both host cell receptors (CD4 and CCR5) (Human immunodeficiency virus type 1 group M subtype B, UniProt P35961); test: Dual antagonism of gp120 binding to host cell receptors; design: species or system HIV-1; conditions: inhibiting gp120 binding to CD4 and CCR5
[4] = system: gp 120 from two other HIV-1 strains; test: Affinity for gp120 of other strains; assay type: binding
Excerpt: HIV-1YU2gp120 was produced as described previously in Drosophila S2 cells (Biorn et al., 2004, Biochem. 43:1928-1938; Pancera et al., 2005, J Virol. 79:9954-9969). Cells were spun down and supernatant sterile filtered. Supernatant was purified over an F105-antibody column (NHS-activated Sepharose, Amersham; F 105 antibody coupled according to manufacturer's instructions). […] Supernatant from the hollow fiber bioreactor was purified with an SP-column and bound fractions were then run over a Q-column. Unbound material was concentrated and analysed by SDS-PAGE. The gp120 proteins from HIV-1 SF162 and HIV-192UG037-08 were used in previous inhibitor binding studies (Cocklin et al., 2007, J Virol. 81:3645-3648); HIV-1SF162 gp120 was obtained through NIH AIDS Research and Reference Reagent Program from DAIDS and NIAID, while HIV-192UG037-08 gp120 was a gift as reported in Cocklin et al. (2007, J Virol. 81:3645-3648). The following monoclonal antibodies were obtained through the NIH AIDS Research and Reference Reagent Program: 2G12 from Dr Hermann Katinger; F105 from Dr Marshall Posner and Dr Lisa Cavacini; b12 from Dr Dennis Burton and Carlos Barbas.

gp120YU2 = molecular target: T1, gp120YU2 (Human immunodeficiency virus type 1 group M subtype B, UniProt P35961); assay type: binding, HIV-1; conditions: HNG-156 at the concentrations tested (0.6 μM elsewhere in the source)
T1 construct: for HIV-1 YU2 gp 120 envelope protein; made in house; host or cells: Drosophila S2 cells
Experimental: b12 binding to gp120YU2 was assayed by SPR using a Biacore 3000 instrument. […] Buffer (PBS+0.005% Tween-20) injection and control surface responses were subtracted from the injection of gp120 over b12 and binding sensorgrams were obtained.
Inhibition curves were generated from response at the end of association. b12 was injected at 100 ul/min with 2.5 min. association and 2 min. dissociation and binding curves were generated from responses at the 100th second of dissociation.
100 ng gp120YU2 was adsorbed to wells. […] Bound antibody was detected with species specific secondary antibody-HRP, and read with OPD assay at 450 nm.

[5] = system: M-tropic and T-tropic strains of HIV-1, SIV, FIV; conditions: cited from earlier work
HIV-1 BaL = conditions: recombinant CV-N; cited from earlier work
SHIV89.6P = conditions: cited from earlier work
[6] = female macaques; cited from earlier work

For `CC[C@H](C)[C@H](NC(=O)[C@@H](N)CCCNC(=N)N)C(=O)N[C@@H](CC(N)=O)C(=O)N[C@@H](CC(N)=O)C(=O)N[C@H](C(=O)N1CCC[C@H]1C(=O)N[C@@H](Cc1c[nH]c2ccccc12)C(=O)N[C@@H](CO)C(=O)N[C@@H](CCC(=O)O)C(=O)N[C@@H](C)C(=O)N[C@@H](CCSC)C(=O)N[C@@H](CCSC)C(=O)O)[C@@H](C)CC` [12p1], the “inhibition of the gp120-4dCD4 interaction” value [1] is given as “found to inhibit” and the “inhibition of the gp120-17b interaction” value [2] is given as “found to inhibit”.

For `CC[C@H](C)[C@H](NC(=O)[C@@H](N)CCCNC(=N)N)C(=O)N[C@@H](CC(N)=O)C(=O)N[C@@H](CC(N)=O)C(=O)N[C@H](C(=O)N1C[C@@H](n2cc(-c3cccc4ccccc34)nn2)C[C@H]1C(=O)N[C@@H](Cc1c[nH]c2ccccc12)C(=O)N[C@@H](CO)C(=O)N[C@@H](CCC(=O)O)C(=O)N[C@@H](C)C(=O)N[C@@H](CCSC)C(=O)N[C@@H](CCSC)C(N)=O)[C@@H](C)CC` [HNG-125], the dual antagonism function [3] was “dual antagonism function”.

In the case of `CC[C@H](C)[C@H](NC(=O)[C@@H](N)CCCNC(=N)N)C(=O)N[C@@H](CC(N)=O)C(=O)N[C@@H](CC(N)=O)C(=O)N[C@H](C(=O)N1C[C@@H](n2cc([C]34[CH]5[CH]6[CH]7[CH]3[Fe]6754389%10[CH]4[CH]3[CH]8[CH]9[CH]4%10)nn2)C[C@H]1C(=O)N[C@@H](Cc1c[nH]c2ccccc12)C(=O)N[C@@H](CO)C(=O)N[C@@H](CCC(=O)O)C(=O)N[C@@H](C)C(=O)N[C@@H](CCSC)C(=O)N[C@@H](CCSC)C(N)=O)[C@@H](C)CC` (stereo partly drawn) [HNG-156, RINNIXWSEAMM, where residue 6 is (2s, 4s)-4-(4-ferrocenyl-1H-1, 2, 3-triazol-1-yl) pyrrolidine-2-carboxylic acid], the “affinity for gp 120 from two other HIV-1 strains” value [4] is reported as “similarly high affinity”, the dual antagonism function [3] is reported as “dual antagonism function” and the “mAb F105 binding inhibition” value (gp120YU2) is reported as “inhibited to near completion”.

B1: CV-N: 11 kD protein originally isolated from the cyanobacteria Nostoc ellipsosporum (protein)
chain: LGKFSQTCYNSAIQGSVLTSTCERTNGGYNTSSIDLNSVIENVDGSLKWQPSNFIETCRNTQLAGSSELAAECKTRAQQFVSTKINLDDHIANIDGTLKYE
For B1, the “inactivation of virus strains” value [5] is listed as “inactivates a broad range of M-tropic and T-tropic strains”, the “cytotoxic effects in ectocervical explants” value (HIV-1 BaL) is listed as “without cytotoxic effects” and the “infection of human ectocervical explants” value (HIV-1 BaL) is listed as “blocks HIV-1 BaL infection”. The “protection against virus challenge” value (SHIV89.6P; gel formulations applied rectally, male macaques) was “protected against challenge”, the clinically adverse effects (SHIV89.6P; rectal and vaginal macaque in vivo assays) was “no clinically adverse effects” and the “in vivo efficacy, vaginal challenge” value [6] was “In vivo efficacy has also be shown”.
